Consider seven molecules from patent US12552823B2, “Glucosamine derivatives and pharmaceutical uses thereof” (RISEN (SUZHOU) PHARMA TECH CO., LTD., priority 2017, dated 2026).

Data set [1] in a line: Pharmacokinetic studies in Sprague-Dawley (SD) rats: plasma GlcNBu after oral gavage of test compound. It is filed as in vivo. Set-up: key to AUC0-t / AUC0-∞ / t1/2z / Tmax / Vz/F / CLz/F / Cmax: (—): not detected. The following applies: 0.93 mmol/kg; for AUC0-t / AUC0-∞ / CLz/F / Cmax / Tmax / Vz/F / t1/2z: Table 5, plasma GlcNBu after oral gavage of indicated compound. The procedure: A test compound is dissolved in water at a concentration determined by the desired dose and dosing volume for the specific animal to which the compound is to be administered. A calculated volume of dosing solution is administered to the animal (PO, SQ, IP, or IV). A blood sample is collected following administration of the test compound at specific time points (such as 0 minutes (min), 5 min, 10 min, 15 min, 30 min, 1 hour (h), 1.5 h, 2 h, 3 h, 4, 6 h, etc.). The blood sample is converted to a plasma sample using standard techniques. The plasma samples are analyzed to determine the concentration of the test compound and, in some cases, GlcNBu.
According to the above general procedure, SD rats were grouped randomly into groups of six (n=6). The test compound, GlcNBu or a compound provided herein, was administered to the animals by oral gavage at a dose of 0.93 mmol/kg. For illustration purposes, GlcNBu was given at an oral dose of 232 mg/kg (0.93 mmol/kg), and compound 16 was administered at an equal molar dose (0.93 mmol/kg, i.e., 362 mg/kg). At pre-set time points, blood was taken through orbital venous plexus extraction, and the samples were analyzed using LC/MS-MS to determine the GlcNBu concentration in the plasma.
In the figure, Curves labeled with -●- and -▴-represent plasma GlcNBu concentration following oral administration of GlcNBu (232 mg/kg, or 0.93 mmol/kg) and compound 16 ([…], or 0.93 mmol/kg), respectively. […] FIG. 2A and FIG. 2B show examples of other compounds of the invention, presented in plasma GlcNBu concentration versus time curves; a summary of pharmacokinetic parameters for these compounds is given in Table 4 and Table 5.

The conditions of data set [2]: humans, polyvalent or monovalent form, compared with glucosamine; cited from earlier work.
Data set [3] relates to destructive arthritis rat model. The following applies: cited from earlier work.
For a further data set, the system named is OVX rat. The following applies: feeding in the OVX rat; cited from earlier work.
Data set [4] concerns Monosodium Iodoacetate-Induced Osteoarthritis (MIA) Model in Rat Knee. Nature of the data set: Monosodium iodoacetate-induced osteoarthritis (MIA) model in rat knee: weight bearing and histology. Type of data set: in vivo. The procedure: Osteoarthritis was induced by intra-articular (i.a.) injection of MIA solution in the rat knee joint as follows: Briefly, rats were anesthetized with isoflurane and given a single i.a. administration of 2 mg of MIA dissolved in saline through the intrapatellar ligament of the right knee. MIA was administered in a volume of 50 μL. Basal readings were established using a group of control rats injected with 10% ethanol in water. Rats were randomized by initial body weight to groups of 6 or 7. After MIA injection, the MIA groups began treatment with either vehicle, or a test compound at a preset dose regime for a period of 28 days. Clinical observations were recorded, including body weight, joint swelling, and weight bearing, on pre-induction day (day 0), day 3, 5, 7, 14, 21 and/or 28. At the end of the study, the animals were euthanized by CO2 and sacrificed.
Joint samples including the tibia and femur were sectioned in the coronal plane and stained using both H&E and Safranin-O. Knee joints were examined and scored for cartilage degeneration, the presence of osteophytes, the amount and extent of calcified cartilage and subchondral bone damage, and the amount of synovial membrane inflammation using the Osteoarthritis Research Society International (OARSI) scoring system put forth in 2010 (Kraus, V. B. et al., Osteoarthritis Cartilage, 2010, Suppl 3:535-52).
Studies of compound 16 in the MIA model were conducted as described above.

The subject of data set [5] is Medial Meniscus Transection (MMT) Model in Rats. Nature of the data set: Medial meniscus transection (MMT) model in rats: weight bearing and histopathology. It is filed as in vivo, rat. An excerpt:
In the rat MMT model, the unilateral knee (right knee) was cleaned and prepped for surgery. An incision was made over the medial aspect of the femoro-tibial joint. The medial collateral ligament was exposed via blunt dissection and transected to reflect the meniscus toward the femur. A full thickness cut was made through the meniscus at its narrowest point. The joint space was returned to normal, and the skin was closed and the animal allowed to recover. For the present study, at second day post MMT induction animals, G1 and G2 animals were treatment with vehicle and test compound 16 respectively. Animals were dosed 4 times every day, and were dosed by gavage for 4 weeks.

For the molecule `CCCC(=O)N[C@H]1C(OCc2ccccc2)O[C@H](CO)[C@@H](O)[C@@H]1O` (stereo partly drawn) [Compound 75, 1-O-benzyl-2-N-butyryl-D-glucosamine], in data set [1], the AUC0-t entry is reported as “(—)”, the “AUC0-∞” value was “(—)”, the CLz/F entry is given as “(—)” and the Cmax result is “(—)”. Also, in data set [1], the Tmax entry was “(—)”, the Vz/F result is “(—)” and the t1/2z result is listed as “(—)”.
For the molecule `CCCC(=O)N[C@H]1C(O)O[C@H](COC(=O)CCC(=O)O)[C@@H](OC(=O)CCC(=O)O)[C@@H]1O` (stereo partly drawn) [Compound 79, 2-N-butyryl-4,6-di-O-(4-hydroxy-4-oxo-butyryl)-D-glucosamine], in data set [1], the AUC0-t result is “(—)”, the “AUC0-∞” value is “(—)”, the CLz/F result was “(—)” and the Cmax entry is “(—)”. Besides, in data set [1], the Tmax entry is reported as “(—)”, the Vz/F entry is “(—)” and the t1/2z result is “(—)”.
As for `CC(=O)N[C@H]1C(O)O[C@H](CO)[C@@H](O)[C@@H]1O` (stereo partly shown) [N-acetylglucosamine], in data set [2], the half-life result is “longer half-life than glucosamine”.
`CCCC(=O)N[C@H]1C(O)O[C@H](CO)[C@@H](O)[C@@H]1O` (stereo partly shown) [GlcNBu, N-butyryl glucosamine]: in data set [3], the subchondral bone structure result is given as “preserved strikingly the subchondral bone structure”. Further, in the data set on OVX rat, the “bone mineral and biomechanical properties” value is “preserves bone mineral and some biomechanical properties”.
As for `CCCC(=O)N[C@H]1C(OCc2ccccc2)O[C@H](CO)[C@@H](O)[C@@H]1OCc1ccccc1` (stereo partly drawn) [Compound 76, 2-N-butyryl-1,3-di-O-benzyl-D-glucosamine], in data set [1], the AUC0-t entry is recorded as “(—)”, the “AUC0-∞” value is on record as “(—)”, the CLz/F entry is “(—)” and the Cmax result is “(—)”. Besides, in data set [1], the Tmax result was “(—)”, the Vz/F result is recorded as “(—)” and the t1/2z result is on record as “(—)”.
Turning to `CCCC(=O)N[C@H]1C(O)O[C@H](COC(=O)CCC)[C@@H](OC(=O)CCC)[C@@H]1O` (stereo partly drawn) [Compound 16, 2-N-butyryl-4,6-O-tributyryl-D-glucosamine], in data set [1] (versus GlcNBu at mole-equivalent oral dose), the plasma drug exposure entry is “improved plasma drug exposure significantly”. The articular cartilage degeneration entry in data set [4] (MIA-induced OA rat model) is reported as “slowed the articular cartilage degeneration”. Further, the “weight bearing on the back-right leg” value in data set [4] (day 5, all compound-treated groups (234 and 468 mg/kg) vs vehicle) is recorded as “significant increases”. The weight bearing result in data set [4] (day 14, high dose (G3, 468 mg/kg) vs vehicle) was “significant increases”. Besides, the “osteophytes (histology)” value in data set [4] (high dose group (468 mg/kg) compared with vehicle group) is listed as “significantly decreased”. In data set [4] (high dose treated group (468 mg/kg) vs vehicle), the “other histological parameters (mean values)” value was “clear trend of lowering all other mean values”. The “degeneration changes of chondrocyte clustering” value in data set [5] (G2 as compared with G1) is listed as “significantly lower”. The “weight bearing on the right paw” value in data set [5] (G2 as compared with G1 on Day 3 and Days 14-28) is “significantly increased”. In addition, in data set [5] (G2 vs G1, all parameters), the histology parameters result is listed as “values in all parameters lower”.
With `CCCC(=O)N[C@H]1C(O)O[C@H](COC(=O)NCCCC(=O)O)[C@@H](O)[C@@H]1O` (stereo partly drawn) [Compound 94, 2-N-butyryl-6-O-((3-carboxy-1-propyl)aminocarbonyl)-D-glucosamine], in data set [1], the AUC0-t entry is listed as “(—)”, the “AUC0-∞” value is given as “(—)”, the CLz/F result is given as “(—)” and the Cmax entry was “(—)”. For the same molecule, in data set [1], the Tmax result is recorded as “(—)”, the Vz/F result is “(—)” and the t1/2z result is listed as “(—)”.
